Test results reported in PubChem BioAssay AID330 (DTP/NCI, 2004).
Values joined by “and” are separate entries in the source; they are usually repeats but may differ in a detail not shown here. Identical values can stand only once. Toxic doses and inconclusive results are not listed.

Test system: P388 leukemia ip, CD2F1 mice, survival T/C
Assay: NCI In Vivo Anticancer Drug Screen. Data for tumor model P388 Leukemia (intraperitoneal) in CD2F1 (CDF1) mice
Conditions: endpoint: median survival time, higher = longer survival
Outline: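 Mice carrying the transplanted tumor received test compound or vehicle. Survival was recorded in each group, and the value is the treated-group measurement divided by that of the vehicle-treated control group.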

[1] = dose: 60.0 mg/kg/injection, schedule: Q01DX005 (ip), vehicle: saline
[2] = dose: 50.0 mg/kg/injection, schedule: Q01DX005 (ip), vehicle: saline with Tween-80
[3] = dose: 100.0 mg/kg/injection, schedule: Q01DX005 (ip), vehicle: saline with Tween-80
[4] = dose: 50.0 mg/kg/injection, schedule: Q01DX005 (ip), vehicle: Klucel (hydroxypropylcellulose) (HPC)
[5] = dose: 100.0 mg/kg/injection, schedule: Q01DX005 (ip), vehicle: Klucel (hydroxypropylcellulose) (HPC)
[6] = dose: 200.0 mg/kg/injection, schedule: Q01DX005 (ip), vehicle: Klucel (hydroxypropylcellulose) (HPC)
[7] = dose: 50.0 mg/kg/injection, schedule: Q01DX009 (ip), vehicle: Klucel (hydroxypropylcellulose) (HPC)

Cc1cc(NCCCNCCCNc2cc(C)nc3cc([N+](=O)[O-])ccc23)c2ccc([N+](=O)[O-])cc2n1
T/C (dose: 12.5 mg/kg/injection, schedule: Q01DX009 (ip), vehicle: other): 150 % of control | T/C (dose: 25.0 mg/kg/injection, schedule: Q01DX009 (ip), vehicle: other): 121 % of control

C=C(C)c1c2ccccc2cc2cccc(Sc3ccccc3)c12
T/C (dose: 100.0 mg/kg/injection, schedule: Q04DX003 (ip), vehicle: saline with Tween-80): 90 % of control | T/C (dose: 200.0 mg/kg/injection, schedule: Q04DX003 (ip), vehicle: saline with Tween-80): 90 % of control | T/C (dose: 400.0 mg/kg/injection, schedule: Q04DX003 (ip), vehicle: saline with Tween-80): 90 % of control

Cc1nc(N)nc(N)c1-c1ccc(Cl)c(Cl)c1
T/C (dose: 1.0 mg/kg/injection, schedule: Q01DX009 (ip), vehicle: saline): 109 % of control | T/C (dose: 2.0 mg/kg/injection, schedule: Q01DX009 (ip), vehicle: saline): 123 % of control | T/C (dose: 3.0 mg/kg/injection, schedule: Q01DX009 (ip), vehicle: saline with Tween-80): 163 % of control | T/C (dose: 4.0 mg/kg/injection, schedule: Q01DX009 (ip), vehicle: saline): 98 % of control | T/C (dose: 4.0 mg/kg/injection, schedule: Q04DX002 (ip), vehicle: saline with Tween-80): 104 % of control | T/C (dose: 6.0 mg/kg/injection, schedule: Q01DX009 (ip), vehicle: saline with Tween-80): 86 % of control | T/C (dose: 6.0 mg/kg/injection, schedule: Q04DX002 (ip), vehicle: saline with Tween-80): 104 % of control | T/C (dose: 6.25 mg/kg/injection, schedule: Q04DX003 (ip), vehicle: saline with Tween-80): 120 % of control | T/C (dose: 8.0 mg/kg/injection, schedule: Q01DX009 (ip), vehicle: saline): 98 % of control | T/C (dose: 8.0 mg/kg/injection, schedule: Q04DX002 (ip), vehicle: saline with Tween-80): 99 % of control | T/C (dose: 10.0 mg/kg/injection, schedule: Q04DX002 (ip), vehicle: saline with Tween-80): 107 % of control | T/C (dose: 12.0 mg/kg/injection, schedule: Q04DX002 (ip), vehicle: saline with Tween-80): 123 % of control | T/C (dose: 20.0 mg/kg/injection, schedule: Q04DX002 (ip), vehicle: saline): 99 % of control | T/C (dose: 25.0 mg/kg/injection, schedule: Q04DX003 (ip), vehicle: saline with Tween-80): 155 % of control | T/C (dose: 30.0 mg/kg/injection, schedule: Q04DX002 (ip), vehicle: saline): 107 % of control | T/C (dose: 40.0 mg/kg/injection, schedule: Q04DX002 (ip), vehicle: saline): 119 % of control

CCCCc1ccc(-c2nn[nH]n2)nc1
T/C (dose: 25.0 mg/kg/injection, schedule: Q04DX002 (ip), vehicle: saline with Tween-80): 101 % of control | T/C (dose: 50.0 mg/kg/injection, schedule: Q04DX002 (ip), vehicle: saline with Tween-80): 100 % of control and 102 % of control | T/C (dose: 100.0 mg/kg/injection, schedule: Q04DX002 (ip), vehicle: saline with Tween-80): 100 % of control and 102 % of control and 104 % of control | T/C (dose: 200.0 mg/kg/injection, schedule: Q04DX002 (ip), vehicle: saline with Tween-80): 105 % of control and 123 % of control and 95 % of control

NNP(=O)(NN)C(Cl)(Cl)Cl
T/C (dose: 15.0 mg/kg/injection, schedule: Q01DX005 (ip), vehicle: saline): 101 % of control | T/C (dose: 30.0 mg/kg/injection, schedule: Q01DX005 (ip), vehicle: saline): 100 % of control | T/C [1]: 108 % of control and 114 % of control

Cc1[nH]c(=O)n(C(C)C)c(=O)c1Br
T/C (dose: 100.0 mg/kg/injection, schedule: Q01DX001 (ip), vehicle: saline sonified): 100 % of control | T/C (dose: 200.0 mg/kg/injection, schedule: Q01DX001 (ip), vehicle: saline sonified): 100 % of control | T/C (dose: 400.0 mg/kg/injection, schedule: Q01DX001 (ip), vehicle: saline sonified): 100 % of control

COC(=O)c1onc2ccc(Cl)cc12
T/C (dose: 18.75 mg/kg/injection, schedule: Q01DX005 (ip), vehicle: Klucel (hydroxypropylcellulose) (HPC)): 99 % of control | T/C (dose: 37.5 mg/kg/injection, schedule: Q01DX005 (ip), vehicle: Klucel (hydroxypropylcellulose) (HPC)): 92 % of control | T/C (dose: 75.0 mg/kg/injection, schedule: Q01DX005 (ip), vehicle: Klucel (hydroxypropylcellulose) (HPC)): 93 % of control | T/C (dose: 150.0 mg/kg/injection, schedule: Q01DX005 (ip), vehicle: Klucel (hydroxypropylcellulose) (HPC)): 95 % of control

Cn1c(=O)oc2ccc(S(=O)(=O)Nc3ccc(Cl)cc3[N+](=O)[O-])cc21
T/C (dose: 50.0 mg/kg/injection, schedule: Q01DX005 (ip), vehicle: saline + Tween-80 + alcohol): 94 % of control | T/C (dose: 100.0 mg/kg/injection, schedule: Q01DX005 (ip), vehicle: saline + Tween-80 + alcohol): 101 % of control | T/C (dose: 200.0 mg/kg/injection, schedule: Q01DX005 (ip), vehicle: saline + Tween-80 + alcohol): 102 % of control

Cc1cc(N=[N+]=[N-])c2ccccc2n1
T/C (dose: 60.0 mg/kg/injection, schedule: Q01DX005 (ip), vehicle: saline with Tween-80): 105 % of control | T/C (dose: 120.0 mg/kg/injection, schedule: Q01DX005 (ip), vehicle: saline with Tween-80): 94 % of control

O=C(Nc1ccc(Cl)cc1)Nc1nnc(Cc2ccc(Cl)cc2)o1
T/C [2]: 99 % of control | T/C [3]: 87 % of control

O=C(CCC(=O)ON1C(=O)CCC1=O)OCCOC(=O)CCC(=O)ON1C(=O)CCC1=O
T/C [2]: 116 % of control | T/C [3]: 114 % of control | T/C (dose: 200.0 mg/kg/injection, schedule: Q01DX005 (ip), vehicle: saline with Tween-80): 98 % of control

OCC1OC(OC2C(CO)OC(Sc3ccccc3)C(O)C2O)C(O)C(O)C1O (stereo unspecified)
T/C [4]: 101 % of control | T/C [5]: 105 % of control | T/C [6]: 105 % of control

CC1(c2ccco2)NC(=O)N(Cl)C1=O (stereo unspecified)
T/C (dose: 100.0 mg/kg/injection, schedule: Q04DX003 (ip), vehicle: saline): 104 % of control | T/C (dose: 200.0 mg/kg/injection, schedule: Q04DX003 (ip), vehicle: saline): 90 % of control

O=[N+]([O-])C1C=Nc2ccccc2N=C1
T/C [7]: 105 % of control | T/C (dose: 100.0 mg/kg/injection, schedule: Q01DX009 (ip), vehicle: Klucel (hydroxypropylcellulose) (HPC)): 97 % of control | T/C (dose: 200.0 mg/kg/injection, schedule: Q01DX009 (ip), vehicle: Klucel (hydroxypropylcellulose) (HPC)): 97 % of control | T/C (dose: 400.0 mg/kg/injection, schedule: Q01DX009 (ip), vehicle: Klucel (hydroxypropylcellulose) (HPC)): 96 % of control

CCOC(=O)C(/C=N\c1[nH]ncc1C#N)=C(/C(=O)OCC)c1ccc(O)cc1
T/C [4]: 110 % of control | T/C [5]: 105 % of control | T/C [6]: 105 % of control

COc1ccn(CC2(C)CO2)c(=O)n1 (stereo unspecified)
T/C [1]: 103 % of control | T/C (dose: 120.0 mg/kg/injection, schedule: Q01DX005 (ip), vehicle: saline): 106 % of control | T/C (dose: 240.0 mg/kg/injection, schedule: Q01DX005 (ip), vehicle: saline): 104 % of control

CC(C)c1ccc(C(Cc2ccccc2)N(CCO)CCO)cc1 (stereo unspecified)
T/C (dose: 12.5 mg/kg/injection, schedule: Q01DX005 (ip), vehicle: Klucel (hydroxypropylcellulose) (HPC)): 105 % of control | T/C (dose: 25.0 mg/kg/injection, schedule: Q01DX005 (ip), vehicle: Klucel (hydroxypropylcellulose) (HPC)): 104 % of control | T/C [4]: 99 % of control and 91 % of control

CC(C)SC(=S)S(=O)(=O)c1ccc(Cl)cc1
T/C (dose: 25.0 mg/kg/injection, schedule: Q01DX009 (ip), vehicle: saline with Tween-80): 104 % of control and 110 % of control | T/C (dose: 50.0 mg/kg/injection, schedule: Q01DX009 (ip), vehicle: saline with Tween-80): 107 % of control (2×) and 111 % of control | T/C (dose: 100.0 mg/kg/injection, schedule: Q01DX009 (ip), vehicle: saline with Tween-80): 104 % of control and 114 % of control and 121 % of control

O=C1NC(c2cccc3ccccc23)Nc2ccc(Cl)cc21 (stereo unspecified)
T/C (dose: 12.5 mg/kg/injection, schedule: Q01DX009 (ip), vehicle: Klucel (hydroxypropylcellulose) (HPC)): 113 % of control | T/C (dose: 25.0 mg/kg/injection, schedule: Q01DX009 (ip), vehicle: Klucel (hydroxypropylcellulose) (HPC)): 123 % of control | T/C [7]: 123 % of control

C=C1C(=O)OC2/C=C(\C)C3OC3/C=C(/C(=O)OC)C(O)C(OC(=O)C3(C)OC3C)C12 (stereo unspecified)
T/C (dose: 3.0 mg/kg/injection, schedule: Q01DX009 (ip), vehicle: Klucel (hydroxypropylcellulose) (HPC)): 115 % of control and 123 % of control | T/C (dose: 6.0 mg/kg/injection, schedule: Q01DX009 (ip), vehicle: Klucel (hydroxypropylcellulose) (HPC)): 120 % of control and 123 % of control | T/C (dose: 12.0 mg/kg/injection, schedule: Q01DX009 (ip), vehicle: Klucel (hydroxypropylcellulose) (HPC)): 119 % of control | T/C (dose: 24.0 mg/kg/injection, schedule: Q01DX009 (ip), vehicle: Klucel (hydroxypropylcellulose) (HPC)): 94 % of control

N#Cc1c(N)[nH]c2ccc(Sc3ccccc3)cc12
T/C (dose: 7.5 mg/kg/injection, schedule: Q01DX005 (ip), vehicle: saline with Tween-80): 97 % of control | T/C (dose: 15.0 mg/kg/injection, schedule: Q01DX005 (ip), vehicle: saline with Tween-80): 99 % of control | T/C (dose: 30.0 mg/kg/injection, schedule: Q01DX005 (ip), vehicle: saline with Tween-80): 104 % of control
